Measurements reported in patent publication US9833497B2, “Human originated EGF domain proteins and use of the same” (CHENGDU SOURCEBIO LIMITED-LIABILITY COMPANY, priority 2013, dated 2017).

Legend:
Format in all cases: cell-based
[1] = tested on: E. coli DH5α; test: Antibacterial activity: MIC and growth curve against E. coli DH5α in 96-well plate; settings: minimal inhibitory concentration against E. coli DH5α; 96-well plate, 5×10^5 CFU/mL, 37° C., judged after 8 h
In short: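 MIC taken as lowest protein level with no bacterial growth, tracked by A600 every 30 min during 37 °C, 175 rpm culture. Two-fold protein series 50-12.5 μg/mL final, triplicate wells, against 5×10^5 CFU/mL of LB-washed mid-log cells.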

[2] = tested on: E. coli BL21; test: MIC against Gram-negative bacteria: E. coli BL21; settings: 5×10^5 CFU/mL
In short: (§1)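 Inocula prepared by growing LB cultures at 37° C to 0.5 McFarland, centrifuging at 4000×g, and resuspending in fresh medium. Final density 5×10^5 CFU/mL per well with two-fold dilutions of purified EGF domain protein; shaking incubation at 37° C.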

[3] = tested on: Pseudomonas aeruginosa; test: MIC against Gram-negative bacteria: Pseudomonas aeruginosa; settings: 5×10^5 CFU/mL
In short: as §1

[4] = tested on: Klebsiella pneumonia; test: MIC against Gram-negative bacteria: Klebsiella pneumonia; settings: 5×10^5 CFU/mL
In short: as §1

[5] = tested on: Enterobacter cloacae; test: MIC against Gram-negative bacteria: Enterobacter cloacae; settings: 5×10^5 CFU/mL
In short: as §1

[6] = tested on: Aeromonas hydrophila; test: MIC against Gram-negative bacteria: Aeromonas hydrophila; settings: 5×10^5 CFU/mL
In short: as §1

[7] = tested on: Citrobacter diversus; test: MIC against Gram-negative bacteria: Citrobacter diversus; settings: 5×10^5 CFU/mL
In short: as §1

[8] = tested on: Moraxella catarrhalis; test: MIC against Gram-negative bacteria: Moraxella catarrhalis; settings: 5×10^5 CFU/mL
In short: as §1

[9] = tested on: Proteus mirabilis; test: MIC against Gram-negative bacteria: Proteus mirabilis; settings: 5×10^5 CFU/mL
In short: as §1

[10] = tested on: Proteus vulgaris; test: MIC against Gram-negative bacteria: Proteus vulgaris; settings: 5×10^5 CFU/mL
In short: as §1

[11] = tested on: Serratia marcescens; test: MIC against Gram-negative bacteria: Serratia marcescens; settings: 5×10^5 CFU/mL
In short: as §1

[12] = E. coli BL21, 96-well plate, 37° C., 10 h
[13] = Pseudomonas aeruginosa, 96-well plate, 37° C., 10 h
[14] = Klebsiella pneumonia, 96-well plate, 37° C., 10 h
[15] = Enterobacter cloacae, 96-well plate, 37° C., 10 h
[16] = Aeromonas hydrophila, 96-well plate, 37° C., 10 h
[17] = Citrobacter diversus, 96-well plate, 37° C., 10 h
[18] = Moraxella catarrhalis, 96-well plate, 37° C., 10 h
[19] = Proteus mirabilis, 96-well plate, 37° C., 10 h
[20] = Proteus vulgaris, 96-well plate, 37° C., 10 h
[21] = Serratia marcescens, 96-well plate, 37° C., 10 h

PRT538 (CPCPLPHLANFAESCYRKNGAVRCICNENYAGPNCERCAPGYYGNPLLIGSTCKK; listed as Homo sapiens)
MIC [1]: 25 µg/mL
MIC against E. coli BL21 ([2]; 96-well plate, 37° C., 10 h): 12.5 µg/mL
MIC against P. aeruginosa ([3]; 96-well plate, 37° C., 10 h): 25 µg/mL
MIC against K. pneumonia ([4]; 96-well plate, 37° C., 10 h): 12.5 µg/mL
MIC against E. cloacae ([5]; 96-well plate, 37° C., 10 h): 25 µg/mL
MIC against A. hydrophila ([6]; 96-well plate, 37° C., 10 h): 12.5 µg/mL
MIC against C. diversus ([7]; 96-well plate, 37° C., 10 h): 25 µg/mL
MIC against M. catarrhalis ([8]; 96-well plate, 37° C., 10 h): 12.5 µg/mL
MIC against P. mirabilis ([9]; 96-well plate, 37° C., 10 h): 12.5 µg/mL
MIC against P. vulgaris ([10]; 96-well plate, 37° C., 10 h): 12.5 µg/mL
MIC against S. marcescens ([11]; 96-well plate, 37° C., 10 h): 50 µg/mL

PRT597 (CDCNRAGTQKPICDPDTGMCRCREGVSGQRCDRCARGHSQEFPTCLQ; listed as Homo sapiens)
MIC [1]: 25 µg/mL
MIC E. coli BL21 ([2]; 96-well plate, 37° C., 10 h): 12.5 µg/mL
MIC P. aeruginosa ([3]; 96-well plate, 37° C., 10 h): 50 µg/mL
MIC K. pneumonia ([4]; 96-well plate, 37° C., 10 h): 12.5 µg/mL
MIC E. cloacae ([5]; 96-well plate, 37° C., 10 h): 25 µg/mL
MIC A. hydrophila ([6]; 96-well plate, 37° C., 10 h): 50 µg/mL
MIC C. diversus ([7]; 96-well plate, 37° C., 10 h): 25 µg/mL
MIC M. catarrhalis ([8]; 96-well plate, 37° C., 10 h): 12.5 µg/mL
MIC P. mirabilis ([9]; 96-well plate, 37° C., 10 h): 50 µg/mL
MIC P. vulgaris ([10]; 96-well plate, 37° C., 10 h): 25 µg/mL
MIC S. marcescens ([11]; 96-well plate, 37° C., 10 h): 12.5 µg/mL

PRT1329 (LPAVCTPPCSAHATCKENNTCECNLDYEGDGITCT; listed as Homo sapiens)
MIC [1]: 12.5 µg/mL
MIC against E. coli BL21 [2, 12]: 50 µg/mL
MIC against P. aeruginosa [3, 13]: 12.5 µg/mL
MIC against K. pneumonia [4, 14]: 50 µg/mL
MIC against E. cloacae [5, 15]: 12.5 µg/mL
MIC against A. hydrophila [6, 16]: 50 µg/mL
MIC against C. diversus [7, 17]: 25 µg/mL
MIC against M. catarrhalis [8, 18]: 12.5 µg/mL
MIC against P. mirabilis [9, 19]: 25 µg/mL
MIC against P. vulgaris [10, 20]: 25 µg/mL
MIC against S. marcescens [11, 21]: 25 µg/mL

PRT102 (DRCLPNYCEHGGECSQSWSTFHCNCTNTGYRGATC; listed as Homo sapiens)
MIC [1]: 12.5 µg/mL
MIC (μg/mL) E. coli BL21 [2, 12]: 12.5 µg/mL
MIC (μg/mL) P. aeruginosa [3, 13]: 12.5 µg/mL
MIC (μg/mL) K. pneumonia [4, 14]: 12.5 µg/mL
MIC (μg/mL) E. cloacae [5, 15]: 12.5 µg/mL
MIC (μg/mL) A. hydrophila [6, 16]: 12.5 µg/mL
MIC (μg/mL) C. diversus [7, 17]: 25 µg/mL
MIC (μg/mL) M. catarrhalis [8, 18]: 12.5 µg/mL
MIC (μg/mL) P. mirabilis [9, 19]: 25 µg/mL
MIC (μg/mL) P. vulgaris [10, 20]: 12.5 µg/mL
MIC (μg/mL) S. marcescens [11, 21]: 25 µg/mL

PRT1324 (PITSCLEQTGKCHPLASCQSTSSGVWSCVCQEGYEGDGFL; listed as Homo sapiens)
MIC [1]: 12.5 µg/mL
MIC against E. coli BL21 [2, 12]: 25 µg/mL
MIC against P. aeruginosa [3, 13]: 50 µg/mL
MIC against K. pneumonia [4, 14]: 25 µg/mL
MIC against E. cloacae [5, 15]: 12.5 µg/mL
MIC against A. hydrophila [6, 16]: 50 µg/mL
MIC against C. diversus [7, 17]: 25 µg/mL
MIC against M. catarrhalis [8, 18]: 12.5 µg/mL
MIC against P. mirabilis [9, 19]: 25 µg/mL
MIC against P. vulgaris [10, 20]: 12.5 µg/mL
MIC against S. marcescens [11, 21]: 25 µg/mL

PRT265 (CQDGHGGCSEHANCSQVGTMVTCTCLPDYEGDGWSC; listed as Homo sapiens)
MIC [1]: 25 µg/mL
MIC (μg/mL) E. coli BL21 ([2]; E. coli BL21, 10 h cultivation at 37° C.): 12.5 µg/mL
MIC (μg/mL) P. aeruginosa ([3]; P. aeruginosa, 10 h cultivation at 37° C.): 25 µg/mL
MIC (μg/mL) K. pneumonia ([4]; K. pneumonia, 10 h cultivation at 37° C.): 12.5 µg/mL
MIC (μg/mL) E. cloacae ([5]; E. cloacae, 10 h cultivation at 37° C.): 25 µg/mL
MIC (μg/mL) A. hydrophila ([6]; A. hydrophila, 10 h cultivation at 37° C.): 12.5 µg/mL
MIC (μg/mL) C. diversus ([7]; C. diversus, 10 h cultivation at 37° C.): 25 µg/mL
MIC (μg/mL) M. catarrhalis ([8]; M. catarrhalis, 10 h cultivation at 37° C.): 25 µg/mL
MIC (μg/mL) P. mirabilis ([9]; P. mirabilis, 10 h cultivation at 37° C.): 25 µg/mL
MIC (μg/mL) P. vulgaris ([10]; P. vulgaris, 10 h cultivation at 37° C.): 50 µg/mL
MIC (μg/mL) S. marcescens ([11]; S. marcescens, 10 h cultivation at 37° C.): 25 µg/mL
